Experimental data published in US7816134B2, “Method of extensive culture of antigen-specific cytotoxic T cells” (Takara Bio Inc., priority 2000, dated 2010).
Where two headings read alike, the source gives them in different places.

Experiments:
[1] = test system: HLA-A2.1-having EBV transformed B-cells (221A2.1); experiment: Cytotoxic activity of anti-tumor-associated antigen(MAGE3)-specific CTLs on the thirty-fifth day after the initiation of induction; settings: 10 μg/ml
[2] = test system: anti-tumor-associated antigen(MAGE3)-specific CTLs; experiment: Expansion ratio of MAGE3-specific CTLs; type: cell-based, human; settings: sample 10 μg/ml: induction +, 14 days
Excerpt: (§1) CTLs prepared in item (1) of Example 2-1 were washed with 5HRPMI, and then made into a suspension having a concentration of 5×10^4 cells/ml. On the other hand, allogenic PBMCs not having HLA-A24 and HLA-A2.1 which were collected in the same manner as in item (1) of Example 1-1 were subjected to X-ray irradiation (3300R), and the cells were washed with the medium and then made into a suspension having a concentration of 5×10^6 cells/ml. These CTLs (2.5×10^4 cells) and allogenic PBMCs (1.25×10^7 cells) were suspended in 10 ml of 5HRPMI, and anti-CD3 antibody (manufactured by Janssen-Kyowa) was further added thereto so as to give a final concentration of 50 ng/ml. The mixture was placed into a flask of 12.5 cm^2 (manufactured by Falcon), and the cells were cultured in a wet-type CO2 incubator at 37° C. for 14 days. […] The expansion ratio (× times ratio) was calculated by dividing the cell count after the expansion by the cell count before the expansion.

[3] = test system: anti-influenza virus memory CTLs (FluMPA2.1); type: cell-based, human
[4] = test system: 888mel; MART1 expressed cells not having HLA-A2.1
Description: (§2) In the evaluation, as target cells, there were used HLA-A2.1-having EBV transformed B-cells which were cultured in the absence of the epitope peptide (name of cells: 221A2.1); a cancer cell line-having HIA-A2.1 which was cultured for two nights in the presence of 100 U/ml IFN-γ (name of cells: 624mel; MART1 expressed cells having HLA-A2.1); or a cancer cell line not having HLA-A2.1 (name of cells: 888mel; MART1 expressed cells not having HLA-A2.1).
(§3) Stimulation by a peptide was not added at all during this culture. On the first day of the initiation of the culture, IL-2 was added so as to have a final concentration of 120 U/ml. […] However, in the group with no addition of the sample, the sample was not added even during medium exchange.

[5] = test system: anti-tumor-associated antigen(MART1)-specific CTLs; experiment: Expansion ratio of MART1-specific CTLs; type: cell-based, human; settings: sample 10 μg/ml: induction +, 14 days
Excerpt: as §1

[6] = test system: anti-influenza virus memory CTLs (FluMPA2.1); experiment: Expansion ratio of anti-influenza virus memory CTLs (FluMPA2.1), REM method (EBV-B cells added); type: cell-based, human; settings: Example 3-2, sample 10 μg/ml during CTL induction +, addition of EBV-B cells +
[7] = test system: HLA-A2.1-having EBV transformed B-cells (221A2.1); experiment: Specific cytotoxic activity of MAGE3-specific CTLs after expansion; type: cell-based, human; settings: for Cytotoxic Activity (%): sample induction +, expansion +
Excerpt: as §1

[8] = test system: HLA-A2.1-having EBV transformed B-cells (221A2.1); experiment: Specific cytotoxic activity of MART1-specific CTLs after expansion, EBV transformed B-cell target; type: cell-based, human; settings: for Cytotoxic Activity (%): target cells 221A2.1, sample induction +, expansion +, peptide addition +
Description: as §2, §3

[9] = test system: HLA-A2.1-having EBV transformed B-cells (221A2.1); settings: for Cytotoxic Activity (%) E/T Ratio 10: Example 3-2, REM method, FluMPA2.1, sample 10 μg/ml during CTL induction +, during expansion +, addition of EBV-B cells +
[10] = test system: HLA-A2.1-having EBV transformed B-cells (221A2.1); settings: for Cytotoxic Activity (%) E/T Ratio 10: Example 3-2, FluMPA2.1, sample 10 μg/ml during CTL induction +, during expansion +, addition of EBV-B cells −; for Cytotoxic Activity (%): sample induction +

Q: Which results are given for hyaluronic acid?
A: difference in the cytotoxic activity by the presence or absence of the addition during the induction [1]: almost no difference; Expansion Ratio [2]: × 217; Expansion Ratio ([3]; Example 3-2, sample 10 μg/ml during CTL induction +, during expansion +, addition of EBV-B cells −): × 335; Expansion Ratio ([3]; Example 4-1, sample 10 μg/ml: induction +, expansion +, 14 days): × 493; Expansion Ratio ([3]; Example 4-2, sample 10 μg/ml: induction +, expansion +, 14 days): × 423; Expansion Ratio ([3]; Example 4-2, sample 10 μg/ml: induction +, expansion −, 14 days): × 393; Cytotoxic Activity (%) [4]: 0%; Expansion Ratio [5]: × 217; Expansion Ratio [6]: × 587; cytotoxic activity after expansion for 14 days (in words) ([7]; MAGE3-specific CTLs, sample 10 μg/ml during CTL induction and during expansion): specific, high cytotoxic activity; Cytotoxic Activity (%) ([7]; peptide addition +, E/T ratio 2): 50.3%; Cytotoxic Activity (%) ([7]; peptide addition +, E/T ratio 6): 67.7%; Cytotoxic Activity (%) ([7]; peptide addition −, E/T ratio 2): 3.6%; cytotoxic activity after expansion for 14 days (in words) ([8]; MART1-specific CTLs, sample 10 μg/ml during CTL induction and during expansion): specific, high cytotoxic activity; Cytotoxic Activity (%) ([8]; E/T ratio 2): 9.1%; Cytotoxic Activity (%) ([8]; E/T ratio 6): 52.8%; Cytotoxic Activity (%) ([8]; E/T ratio 17): 74.4%; Cytotoxic Activity (%) E/T Ratio 10 ([9]; peptide addition +): 95.5%; Cytotoxic Activity (%) E/T Ratio 10 ([9]; peptide addition −): 8.1%; cytotoxic activity after expansion according to the REM method (in words) ([9]; sample added at the stage of CTL induction prior to the expansion, EBV-B cells added): maintained at a high level; Cytotoxic Activity (%) E/T Ratio 10 ([10]; peptide addition +): 60.0%; Cytotoxic Activity (%) E/T Ratio 10 ([10]; peptide addition −): 2.3%; Cytotoxic Activity (%) ([10]; Example 4-1, expansion +, peptide addition +, E/T ratio 1): 31.1%; Cytotoxic Activity (%) ([10]; Example 4-1, expansion +, peptide addition +, E/T ratio 3): 49.8%; Cytotoxic Activity (%) ([10]; Example 4-1, expansion +, peptide addition +, E/T ratio 10): 90.8%; Cytotoxic Activity (%) ([10]; Example 4-1, expansion +, peptide addition +, E/T ratio 30): 105.6%; Cytotoxic Activity (%) ([10]; Example 4-1, expansion +, peptide addition −, E/T ratio 1): 7.3%; Cytotoxic Activity (%) ([10]; Example 4-1, expansion +, peptide addition −, E/T ratio 3): 8.6%; Cytotoxic Activity (%) ([10]; Example 4-1, expansion +, peptide addition −, E/T ratio 10): 13.1%; Cytotoxic Activity (%) ([10]; Example 4-1, expansion +, peptide addition −, E/T ratio 30): 17.0%; Cytotoxic Activity (%) ([10]; Example 4-2, expansion +, peptide addition +, E/T ratio 1): 7.2%; Cytotoxic Activity (%) ([10]; Example 4-2, expansion +, peptide addition +, E/T ratio 3): 23.3%; Cytotoxic Activity (%) ([10]; Example 4-2, expansion +, peptide addition +, E/T ratio 10): 59.6%; Cytotoxic Activity (%) ([10]; Example 4-2, expansion +, peptide addition +, E/T ratio 30): 85.1%; Cytotoxic Activity (%) ([10]; Example 4-2, expansion +, peptide addition −, E/T ratio 1): 0%; Cytotoxic Activity (%) ([10]; Example 4-2, expansion +, peptide addition −, E/T ratio 3): 0%; Cytotoxic Activity (%) ([10]; Example 4-2, expansion +, peptide addition −, E/T ratio 10): 1.9%; Cytotoxic Activity (%) ([10]; Example 4-2, expansion +, peptide addition −, E/T ratio 30): 14.3%; Cytotoxic Activity (%) ([10]; Example 4-2, expansion −, peptide addition +, E/T ratio 1): 9.9%; Cytotoxic Activity (%) ([10]; Example 4-2, expansion −, peptide addition +, E/T ratio 3): 22.1%; Cytotoxic Activity (%) ([10]; Example 4-2, expansion −, peptide addition +, E/T ratio 10): 47.7%; Cytotoxic Activity (%) ([10]; Example 4-2, expansion −, peptide addition +, E/T ratio 30): 78.0%; Cytotoxic Activity (%) ([10]; Example 4-2, expansion −, peptide addition −, E/T ratio 1): 3.0%; Cytotoxic Activity (%) ([10]; Example 4-2, expansion −, peptide addition −, E/T ratio 3): 1.4%; Cytotoxic Activity (%) ([10]; Example 4-2, expansion −, peptide addition −, E/T ratio 10): 4.7%; Cytotoxic Activity (%) ([10]; Example 4-2, expansion −, peptide addition −, E/T ratio 30): 9.3%; cytotoxic activity after expansion for 14 days (in words) ([10]; sample 10 μg/ml only during CTL induction): specific, high cytotoxic activity
